The supplement of paper PMC12533247

Columns and labels:
primary keratinocytes = assay: % change in live cells vs DMSO control; higher = less cytotoxic; conditions: time (h post treatment): 20
Procedure: (§1)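 Cytotoxicity in uninfected 2D primary donor keratinocytes (20 h post treatment) and fibroblasts (48 h post treatment), measured with NucSpot live/dead dyes on IncuCyte. Live cells are normalised to the 0.2% DMSO control and shown as % change. Three biological replicates for each of donors 3, 4 and 5.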

[1] = test system: primary dermal fibroblasts; assay: as above; conditions: time (h post treatment): 48
Procedure: as §1

CC(C)c1cnn2c(NCc3ccccc3-n3cccn3)nc(OC3CCCNC3)nc12 (stereo not given) [LDC4297]
% change in live cells [%]
Conditions	0.082305 µM	0.246914 µM	0.740741 µM	2.22222 µM	6.66667 µM	20 µM	60 µM
[1], donor: 3	-12.3	-11.3	-17.3	-22.3	-23	-24.3	-30.3
[1], donor: 4	-2.33	-6.33	-5.33	-5	-7.33	-3	0.667
[1], donor: 5	-0.667	-2.33	-7	-16.3	-22.7	-27.3	-33
primary keratinocytes, donor: 3	-12	-41.3	-36	-56.3	-75	-80.3	-90
primary keratinocytes, donor: 4	1	-17.7	-37	-70	-98.67	-97.7	-99.67
primary keratinocytes, donor: 5	-10.3	-17	-27.7	-51.7	-94.33	-95	-95.3

O=C(Nc1ccc([N+](=O)[O-])cc1Cl)c1cc(Cl)ccc1O [Niclosamide]
% change in live cells [%]
Conditions	0.082305 µM	0.246914 µM	0.740741 µM	2.22222 µM	6.66667 µM	20 µM	60 µM
[1], donor: 3	-18.7	-17	-16	-24.7	-35	-49.7	-56
[1], donor: 4	3	2.67	-0.333	-2	-9	-41.7	-38
[1], donor: 5	5	1.67	-1	-2.67	-26	-63	-74.33
primary keratinocytes, donor: 3	-8	-11.7	-30	-14.3	-23	-61.7	-68
primary keratinocytes, donor: 4	-13	-20.7	-20.7	-15.3	-13	-25.7	-69.7
primary keratinocytes, donor: 5	-11.7	-11.3	-8	-13.3	-9	-26.7	-54.7

C=CC(=O)N1CC/C(=C\c2ccc(F)c([N+](=O)[O-])c2)C(=O)/C(=C/c2ccc(F)c([N+](=O)[O-])c2)C1 [VLX1570]
% change in live cells [%]
Conditions	0.082305 µM	0.246914 µM	0.740741 µM	2.22222 µM	6.66667 µM	20 µM	60 µM
[1], donor: 3	-13	-15.3	-24	-46.7	-100	-101.3	-98.7
[1], donor: 4	2.33	0	-1.33	-3	-3	-44	-116
[1], donor: 5	2	4.67	4.33	-1.67	-20.7	-98	-96.7
primary keratinocytes, donor: 3	-11.3	-24	-37.7	-54	-58.3	-85.3	-95
primary keratinocytes, donor: 4	-13.3	-18	-13	-9.33	-66	-70	-99.33
primary keratinocytes, donor: 5	-6.33	-10	-11	-10.7	-39	-74.7	-97.67

COc1ccc(-c2nc(N3CCOCC3)c3sc(CN(C)c4ncc(C(=O)NO)cn4)cc3n2)cn1 [Fimepinostat]
% change in live cells [%]
Conditions	0.082305 µM	0.246914 µM	0.740741 µM	2.22222 µM	6.66667 µM	20 µM	60 µM
[1], donor: 3	-29.3	-34.3	-41.3	-56	-61	-64.7	-75
[1], donor: 4	-13	-33.3	-44	-67.3	-60.3	-56.3	-60.3
[1], donor: 5	6.67	-8.67	-23.3	-56.3	-60	-68	-79.3
primary keratinocytes, donor: 3	-23.3	-39.7	-38.7	-41.3	-42.3	-76	-95.3
primary keratinocytes, donor: 4	-5.33	-20.7	-34.3	-59	-79.3	-99.7	-94.33
primary keratinocytes, donor: 5	-8	-13.7	-38	-58.7	-67	-80.7	-95.33

CC1(C)CC(=O)c2c(C(F)(F)F)nn(-c3ccc(C(N)=O)c(N[C@H]4CC[C@H](O)CC4)c3)c2C1 [SNX-2112]
% change in live cells [%]
Conditions	0.082305 µM	0.246914 µM	0.740741 µM	2.22222 µM	6.66667 µM	20 µM	60 µM
[1], donor: 3	-17.7	-20.7	-23	-22.3	-22.7	-22.7	-21
[1], donor: 4	14.3	4.67	0.333	0.667	6.33	7.33	1
[1], donor: 5	9	-1.67	-1.67	-8.67	-10.3	-13.7	-32.3
primary keratinocytes, donor: 3	-14.3	-38.3	-40.3	-43.7	-49	-59.3	-79.3
primary keratinocytes, donor: 4	4.33	-29	-53.3	-58.7	-70	-74	-74
primary keratinocytes, donor: 5	-22	-60.7	-72.3	-77	-79	-76.7	-57.7

O=C(/C=C\n1cnc(-c2cc(C(F)(F)F)cc(C(F)(F)F)c2)n1)NNc1ccccn1 [Verdinexor]
% change in live cells [%]
Conditions	0.082305 µM	0.246914 µM	0.740741 µM	2.22222 µM	6.66667 µM	20 µM	60 µM
[1], donor: 3	-24	-20.3	-22.3	-23.3	-24.7	-27.7	-40.3
[1], donor: 4	-8.33	-9.67	-14	-9.67	-11	-13.3	-31.3
[1], donor: 5	-0.667	-6.33	-10.7	-15.7	-18.7	-23.7	-44
primary keratinocytes, donor: 3	-11	-23.3	-38.7	-44.3	-60.3	-68.3	-75.3
primary keratinocytes, donor: 4	-9	-17	-12	-32	-42.3	-74.7	-86.7
primary keratinocytes, donor: 5	-5.67	-12.7	-16.7	-23.3	-31.7	-74	-82

Cc1nc(N(C)C(=O)Cc2ccc(-c3ccccn3)cc2)sc1S(N)(=O)=O [Pritelivir]
% change in live cells [%]
Conditions	0.082305 µM	0.246914 µM	0.740741 µM	2.22222 µM	6.66667 µM	20 µM	60 µM
[1], donor: 3	-10.3	-8.67	-8	-9	-11	-10	-10
[1], donor: 4	-2.67	-1	-6.33	-2	1.33	7	3.33
[1], donor: 5	7.67	7.67	3.67	0.667	-1	-1	-13
primary keratinocytes, donor: 3	-3.33	-6.67	-8.33	-6.33	-0.667	-38	-78.3
primary keratinocytes, donor: 4	-1	-18.3	-6	-4.67	-44.3	-28.7	-61.7
primary keratinocytes, donor: 5	-1.67	-7.33	-0.667	-5.33	0.333	7.67	-20

Cc1cccc(C)c1N(CC(=O)Nc1ccc(-c2ncon2)cc1)C(=O)C1CCS(=O)(=O)CC1 [Amenamevir]
% change in live cells [%]
Conditions	0.082305 µM	0.246914 µM	0.740741 µM	2.22222 µM	6.66667 µM	20 µM	60 µM
[1], donor: 3	-6.67	-7	-7.33	-6	-6	-6.33	-6.33
[1], donor: 4	5	4.67	2.67	5	6.67	4.67	0
[1], donor: 5	2.33	4.33	3	0	-3	-4.67	-23.3
primary keratinocytes, donor: 3	-5	-8.33	-12	-3.33	1.67	-32.7	-70.3
primary keratinocytes, donor: 4	8.33	-12.7	-6	-3.33	-36.7	-42	-63.3
primary keratinocytes, donor: 5	-7.67	-7	-5.67	-5.33	-1.67	5.67	-5

CC(=O)O[C@H]1C[C@H](O[C@H]2[C@@H](O)C[C@H](O[C@H]3[C@@H](O)C[C@H](O[C@H]4CC[C@@]5(C)[C@H](CC[C@@H]6[C@@H]5C[C@@H](O)[C@]5(C)[C@@H](C7=CC(=O)OC7)CC[C@]65O)C4)O[C@@H]3C)O[C@@H]2C)O[C@H](C)[C@H]1O[C@@H]1O[C@H](CO)[C@@H](O)[C@H](O)[C@H]1O [Lanatoside C]
% change in live cells [%]
Conditions	0.082305 µM	0.246914 µM	0.740741 µM	2.22222 µM	6.66667 µM	20 µM	60 µM
[1], donor: 3	-25.7	-39.7	-48.3	-47	-46	-43.3	-49.3
[1], donor: 4	-1.33	-20	-28.3	-29.7	-24.3	-22.7	-23.3
[1], donor: 5	-11.3	-32.7	-31.7	-37.3	-42	-46.7	-58.7
primary keratinocytes, donor: 3	-27	-47	-55.3	-53.7	-58	-67.7	-71.3
primary keratinocytes, donor: 4	-18	-39.7	-63	-64	-71.3	-76.3	-76.3
primary keratinocytes, donor: 5	-3.67	-54.3	-58.3	-59	-56.3	-57.3	-62.3

Nc1ccn([C@@H]2O[C@H](CO)[C@@H](O)C2(F)F)c(=O)n1 [Gemcitabine]
% change in live cells [%]
Conditions	0.082305 µM	0.246914 µM	0.740741 µM	2.22222 µM	6.66667 µM	20 µM	60 µM
[1], donor: 3	-21.3	-23.7	-27.3	-30.3	-33.3	-38	-43.7
[1], donor: 4	-9.33	-9.33	-15.7	-11.7	-9.67	-18	-19.7
[1], donor: 5	-5	-11.3	-21.3	-26.3	-34.3	-43.3	-52.7
primary keratinocytes, donor: 3	-37.7	-45.3	-49.7	-52.3	-57.3	-75.7	-77.7
primary keratinocytes, donor: 4	-63	-67.7	-63.7	-63.7	-74.3	-76.3	-87.3
primary keratinocytes, donor: 5	-51.3	-52.7	-51.3	-55.7	-61	-70	-78.7
